Measurements as given in article PMC5584980, “Deciphering HLA-I motifs across HLA peptidomes improves neo-antigen predictions and identifies allostery regulating HLA specificity” (PLoS Computational Biology, 2017).

Test system: HLA-B14:02 wt
Assay: Binding stability assay, refolded HLA-I/peptide complex, ELISA
Design: species or system human
Experimental: W97R mutation was introduced into HLA-B14:02 wt by overlap extension PCR and confirmed by DNA sequencing. BL21(DE3)pLys bacterial cells were used to produce HLA-B14:02 wt and W97R as inclusion bodies. Four peptides with histidine or arginine at P2 (A[H/R]TKPRPAL, G[H/R]YDRSKSL, A[H/R]FAKSISL, H[H/R]FEKAVTL) were synthesized at the Peptide Facility (UNIL, Lausanne) with free N and C-termini (1mg of each peptide, > 80% purity). Peptides with histidine at P2 come from our HLA peptidomics data and were assigned to HLA-B15:18 by our mixture model algorithm. Based on our analysis of HLA sequence and structure, peptides with histidine at P2 are predicted to interact with HLA-B14:02 W97R, while peptides with arginine at P2 are predicted to bind better HLA-B14:02 wt.
Synthetic peptides were incubated separately with denaturated […] mutant refolded by dilution in the presence of biotinylated beta-2 microglobulin proteins at temperature T = 4°C for 48 hours. […] Negative controls consist of absence of peptides. koff were determined by fitting exponential curves to the light intensity values obtained by ELISA at different time points. […] For two peptides showing exceptionally high binding stability, only lower bounds on half-lives could be determined (dashed lines in Fig 5D).

AHTKPRPAL [synthetic HLA-B15:18 ligand from HLA peptidomics data, histidine at P2, free N and C-termini]
binding of the peptide: fully abolished
